This note sets out measurements from patent US7863264B2, “Stabilised compositions having antibacterial activity” (Coloplast A/S, priority 2000, dated 2011).

Data set [1] can be described thus: UV light stability test (visual and CIE-Lab colour measurement). Further details: key to Dist. (distance in CIE-Lab colour space): Dist = √(ΔL²+Δa²+Δb²) in CIE-Lab, before vs after UV. The settings on record: for Visual evaluation of complexes after UV-irradiation: UV lamp 30 minutes, cut off approx. 280 nm; for L2 (CIE-Lab colour coordinate L) / a2 (CIE-Lab colour coordinate a) / b2 (CIE-Lab colour coordinate b): after 30 minutes UV irradiation; for L1 (CIE-Lab colour coordinate L) / a1 (CIE-Lab colour coordinate a) / b1 (CIE-Lab colour coordinate b): before irradiation; for Dist. (distance in CIE-Lab colour space): before vs after 30 minutes UV irradiation. The class given is physicochemical. The method, then: 1.5 g of complex was placed in a 50 mm Pyrex petri dish. This was covered with a 56 mm Pyrex lid with a UV-cut off at approx. 280 nm and placed 100 mm under a UV lamp (UVASPOT) 400/T 450W metal halide high pressure lamp, Dr. K. Hönle GmbH) for 30 minutes.
The colour was measured, with a Minolta CR300 colour measurement apparatus (CIE-Lab colour coordinates) before (1) and after (2) irradiation. Measurements were made approx. 1 mm above the complex. The distance in colour-space was calculated using the formula Dist=√{square root over (ΔL^2+Δa^2+Δb^2)}, where “L”, “a”, and “b” are the CIE-Lab Colour Coordinates Solubility for 1:1 Complexes:
Compounds according to the production in example 4 were assessed for stability against UV-light (wave length >280 nm). Milled powders were spread in a 1 mm thick layer in ordinary petri dishes and illuminated by the UV-light for 30 minutes.

A short description of data set [2]: Solubility for 1:1 complexes (silver by atomic absorption spectroscopy). Conditions: Complex Ag:ligand 1:1; purified water.
Protocol: The tube is placed on a vortex mixer for 1 h (1500 min^−1) and the tube is centrifuged (3000 min^−1/30 min). The water is decanted off and discarded, and another 10 ml purified water is added. This is repeated 2 times, and after the third centrifugation, the liquid decanted off is filtered (0.22 mm PVDF), preserved with nitric acid and the silver concentration is determined by atomic absorption spectroscopy after appropriate dilution.
Determination of solubility of complexes of silver with various ligands.

Turning to `O=C1CNC(=O)[N-]1.[Ag+]` [Ag/hydantoin, Silver hydantoinate, reference compound], in data set [1], the “Visual evaluation of complexes after UV-irradiation” value (from here on “Visual evaluation of complexes”) is on record as “Dark brown/heavily discoloured”, the “L2 (CIE-Lab colour coordinate L)” value amounted to 26.03, the “a2 (CIE-Lab colour coordinate a)” value is given as 10.75 and the “b2 (CIE-Lab colour coordinate b)” value is 12.84. In data set [1], the “L1 (CIE-Lab colour coordinate L)” value worked out at 96.67, the “a1 (CIE-Lab colour coordinate a)” value worked out at 0.06, the “b1 (CIE-Lab colour coordinate b)” value is on record as 2.62 and the “Dist. (distance in CIE-Lab colour space)” value turned out to be 72.17.

On to “Silver 5,5-diethyl-hydantoinate [Ag/5,5-diethyl-hydantoin]”, for which, in data set [1], the “Visual evaluation of complexes” value is “White/no trace of discolouration”, the “L2 (CIE-Lab colour coordinate L)” value was 94.05, the “b2 (CIE-Lab colour coordinate b)” value was 2.03 and the “L1 (CIE-Lab colour coordinate L)” value turned out to be 96.76. In data set [1], the “b1 (CIE-Lab colour coordinate b)” value worked out at 0.67 and the “Dist. (distance in CIE-Lab colour space)” value came to 3.05.

Consider `CC1(C)NC(=O)[N-]C1=O.[Ag+]` [Ag/5,5-dimethyl-hydantoin, Silver 5,5-dimethyl-hydantoinate], for which, in data set [1], the “Visual evaluation of complexes” value is recorded as “White/no trace of discolouration”, the “L2 (CIE-Lab colour coordinate L)” value was 96.84, the “b2 (CIE-Lab colour coordinate b)” value is 0.39 and the “L1 (CIE-Lab colour coordinate L)” value is given as 94.96. Besides, in data set [1], the “b1 (CIE-Lab colour coordinate b)” value is 0.12 and the “Dist. (distance in CIE-Lab colour space)” value is on record as 1.90.

With “Silver 5-methyl-5-isobutyl-hydantoinate [Ag/5-isobutyl-5-methyl-hydantoin]”, in data set [1], the “Visual evaluation of complexes” value was “White/no trace of discolouration”, the “L2 (CIE-Lab colour coordinate L)” value was found to be 92.65, the “b2 (CIE-Lab colour coordinate b)” value amounted to 1.74 and the “L1 (CIE-Lab colour coordinate L)” value came out at 92.4. Further, in data set [1], the “a1 (CIE-Lab colour coordinate a)” value worked out at 0.03, the “b1 (CIE-Lab colour coordinate b)” value worked out at 0.42 and the “Dist. (distance in CIE-Lab colour space)” value is 1.36.

With “Silver allantoinate [Ag-allantoin 1:1, reference compound]”, in data set [1], the “Visual evaluation of complexes” value is listed as “Dark brown/heavily discoloured”, the “L2 (CIE-Lab colour coordinate L)” value was 32.7, the “a2 (CIE-Lab colour coordinate a)” value stood at 14.71 and the “b2 (CIE-Lab colour coordinate b)” value amounted to 28.41. Further, in data set [1], the “L1 (CIE-Lab colour coordinate L)” value was 92.98, the “b1 (CIE-Lab colour coordinate b)” value is on record as 2.3 and the “Dist. (distance in CIE-Lab colour space)” value stood at 67.44. In addition, the “discolouration of the product” value in data set [1] (complex made according to U.S. Pat. No. 2,336,131, UV test not meaningful) is given as “discoloured extremely easily”.

As to `CC(=O)N1C(=O)[N-]C(=O)C1(C)C.[Ag+]` [Ag/1-acetyl-5,5-dimethyl-hydantoin, Silver 1-acetyl-5,5-dimethyl-hydantoinate], the Solubility in data set [2] is recorded as 1.100 mg Ag/l.
